Reference: patent US20210113522A1, “COUMARIN DERIVATIVE AS ANTI-ASTHMATIC AGENT, PHARMACEUTICAL COMPOSITION THEREOF, ITS PREPARATION AND USE” (I-NOVA MEDICINSKA ISTRAZIVANJA D.O.O., priority 2017, published 2021)

Tests used:
CCL11 (eotaxin) = test: OVA model: CCL11 (eotaxin) immunohistochemistry of lung sections; type: in vivo, Balb/c mice; details: OVA-challenged mice; 1 2 mg/kg, beclomethasone 1 mg/kg
Description: (§1) • (1) Wash Buffer: T-PBS (0.1M, pH 7.4, 0.05% Tween 20); • (2) Blocking/Incubation Buffer: 1% bovine serum albumin, 0.1% Cold Fish Skin Gelatin, 0.5% Triton® X-100, 0.1 M PBS (pH 7.4); • (3) Peroxidase Blocking Solution (3% H2O2 in water); • (4) EDTA Antigen Retrieval Buffer (1 mM EDTA, 0.05% Tween 20, pH 8.0); • (5) Primary antibodies: • Rabbit anti-mouse IL-5 (Cat. #ABIN446956; Antibodies-Online GmbH, Schloss-Rahe-Str. 1552072 Aachen, Germany); • Rat anti-mouse CCL11 (Cat. #MAB420; R&D Systems, Inc., 614 McKinley Place Nebr., Minneapolis, Minn. 55413); • (6) Secondary antibodies: • Goat anti-rabbit IgG (H+L)-HRP (cat. #31466; Thermo Fisher Scientific, 168 Third Avenue Waltham, Mass. USA 02451); • Goat anti-rat IgG (H+L)—HRP (cat. #62-9520; Thermo Fisher Scientific, 168 Third Avenue Waltham, Mass. USA 02451); • (7) Pierce DAB Substrate Kit (DAB (10×), 25 mL; Stable Peroxide Buffer, 250 mL) (Catalog #34002; Thermo Fisher Scientific, 168 Third Avenue Waltham, Mass. USA 02451); • (8) Hematoxylin Counterstain (Cat #GHS216; Sigma-Aldrich Chemie GmbH, Eschenstrasse 5, 82024 Taufkirchen, Germany); • (9) Vitro-Clud 500 Mounting Medium (Catalog #A20500; Deltalab; Plz. Verneda 1, Pol Ind La Llana 08191 Rubí Barcelona Spain). […]

IL-5 = test: OVA model: IL-5 immunohistochemistry of lung sections; type: in vivo, Balb/c mice; details: OVA-sensitised mice; both compound 1 groups 2 mg/kg, beclomethasone 1 mg/kg
Description: To investigate the treatment effect of compound 1, immunohistology from serial lung sections was performed 2 days after i.n. challenge in experimental mice that were treated with the compound 1 or beclomethasone as standard antiinflammatory and anti-asthmatic API.
as §1, with “Mass.” for “Mass. USA 02451); • (8) Hematoxylin Counterstain (Cat #GHS216; Sigma-Aldrich Chemie GmbH, Eschenstrasse 5, 82024 Taufkirchen, Germany); • (9) Vitro-Clud 500 Mounting Medium (Catalog #A20500; Deltalab; Plz. Verneda 1, Pol Ind La Llana 08191 Rubí Barcelona Spain).”

| SMILES | CCL11 (eotaxin) levels in lung sections (CCL11 (eotaxin)) | IL-5 expression in lung sections (IL-5) |
| --- | --- | --- |
| O=c1oc2cc(O)cc(O)c2c(O)c1-c1coc2c1c(=O)oc1cc(O)cc(O)c12 [Compound 1, 7,9-dihydroxy-3-(4,5,7-trihydroxy-2-oxo-2H-chromene-3-yl)-4H-furo[3,2-c]chromen-4-one] | reduced to background | no IL-5 expression |
| C[C@H]1C[C@H]2[C@@H]3CCC4=CC(=O)C=C[C@]4(C)[C@@]3(Cl)[C@@H](O)C[C@]2(C)[C@@]1(O)C(=O)CO [beclomethasone, reference compound] | reduced to background | moderate result |
